US20200404907A1, “METHOD OF REDUCING CROP DAMAGE” (BAYER AKTIENGESELLSCHAFT, priority 2018, published 2020)

Columns and labels:
[1] = tested on: wheat seeds (winter wheat, TRZAW); experiment: Method A: safener seed treatment then post-emergence herbicide, visual crop damage in greenhouse pots; format: in vivo
Method: (§1) For the safener seed treatment, sufficient seeds were weighed into screw top glass bottles approximately twice the volume of the seeds.
(§2) The safener (mefenpyr-diethyl, formulated as suspension concentrate (SC)) was weighed out so that the required rates (g a.i./kg seed) would be obtained, dissolved in water (1 ml water per 10 g of seeds), and added to the seeds to produce a slurry.
(§3) The bottles were capped and then placed in an overhead shaker (set at medium speed for up to 1 hour) so that the seeds were evenly coated with the slurry. The bottles were uncapped and the seeds were sown as described above.
(§4) For the seed treatment process, the blind formulation (the SC formulation without the safener mefenpyr-diethyl) was used as seed treatment as described above.

[2] = tested on: wheat seeds (winter wheat, TRZAW); experiment: Method D: safener seed treatment then pre-emergence herbicide plus safener tank mix, visual crop damage; format: in vivo
Method: as §1, §2, §3, §4

[3] = tested on: wheat seeds (winter wheat, TRZAW); experiment: Method C: safener seed treatment then post-emergence herbicide plus safener tank mix, visual crop damage; format: in vivo
Method: as §1, §2, §3, §4

[4] = tested on: wheat seeds (winter wheat, TRZAW); experiment: Prior-art method: post-emergence herbicide and tank-mix safener, visual crop damage in greenhouse pots; settings: herbicide 200 g/ha post-emergence (BBCH11); no safener; 14 days after application; mean of at least 3 replicates
[5] = herbicide 200 g/ha post-emergence (BBCH11), no safener, 14 days after application
[6] = safener seed treatment 0.5 g/kg only, no herbicide

Row | SMILES | % crop damage [1, 5] | % crop damage ([2]; herbicide 50 g/ha pre-emergence, no safener, 14 days after application) | % crop damage [3, 5] | % crop damage [4] | % crop damage [1, 6] | % crop damage ([2]; safener 200 g/ha in tank mix pre-emergence only, no herbicide, 14 days after application) | % crop damage [2, 6] | % crop damage ([3]; safener 200 g/ha in tank mix post-emergence only, no herbicide, 14 days after application) | % crop damage [3, 6]
1 | Cc1ccccc1CO[C@@H]1C[C@@]2(C(C)C)CC[C@]1(C)O2 (racemic) [Herbicide post-em., Cinmethylin] | 28% | 17% | 28% | 28% | – | – | – | – | –
2 | CCOC(=O)C1=NN(c2ccc(Cl)cc2Cl)C(C)(C(=O)OCC)C1 (stereo not drawn) [Safener seed treatment, ethyl 1-(2,4-dichlorophenyl)-5-(ethoxycarbonyl)-5-methyl-2-pyrazoline-3-carboxylate] | – | – | – | – | 0% | 5% | 2% | 5% | 0%
